Values joined by “and” are separate entries in the source; they are usually repeats but may differ in a detail not shown here. Equal values may be shown once.
Details: Liquid, Closed cell (Static) method

O=C=O [carbon dioxide]
Details | vapor or sublimation pressure
273.16 K | 3485.7 kPa
273.17 K | 3485.9 kPa
278.2 K | 3977 kPa and 3975 kPa
283.15 K | 4500.5 kPa and 4502 kPa
288.15 K | 5090.5 kPa and 5087 kPa
293.14 K | 5726.5 kPa and 5726.4 kPa
298.15 K | 6436.1 kPa and 6430.1 kPa
303.15 K | 7214.4 kPa
303.19 K | 7212.8 kPa
303.64 K | 7290.9 kPa
303.65 K | 7297.4 kPa
303.85 K | 7329 kPa and 7326.1 kPa
304.04 K | 7360.5 kPa and 7358.8 kPa

— the NIST ThermoML archive (doi:10.1016/j.jct.2019.03.027)
